The results in this text go back to US8420676B2, “Oxazolidinone derivatives” (Dong-A Pharmaceuticals Co. Ltd., priority 2003, dated 2013).

The structures appear in SMILES notation. Values after ≈ are worked out from the molar mass of the structure shown. Where a name gives a salt, the structure may show the parent alone.

In data set [1] the test system is methicillin resistant Staphylococcus aureus (MRSA). The experiment in a line: Assay for in vitro antibacterial activity, agar dilution (MRSA). The conditions noted are these: read-out: Minimum Inhibitory Concentration (MIC50) MRSA.
Data set [2] deals with vancomycin resistant Enterococci (VRE). The experiment in a line: Assay for in vitro antibacterial activity, agar dilution (VRE). As to conditions: Enterococcus, read-out: Minimum Inhibitory Concentration (MIC50) VRE. In general terms: In agar dilution, organisms are placed on agar that contains the substance at set levels.
Data set [3] in a line: Assay for solubility in distilled water (turbidity by naked eye). The data set is classed as physicochemical. As to conditions: average of three runs; for solubility at 2 min: thermodynamic from solid. The method, then:
The derivatives of the present invention were added to 200 μl of distilled water and then the solution was stirred for 2 minutes. The turbidity of the solution was watched through naked eye.
When the derivatives were not dissolved completely, 50 μl of distilled water was added to the solution and then the turbidity of the solution was assayed in the above manner to find a point of becoming transparent solution.
When 2 mg of the derivatives was first added to distilled water and completely dissolved so that the solution became transparent, 2 mg of the derivatives was added more to the solution and then state of the solution was watched. The derivatives of the present invention were added to the five times and then solubility of the solution was assayed for. The assay for solubility was carried out the three times repeatedly in the above method and the results were averaged.

Regarding `Cc1nnc(-c2ccc(-c3ccc(N4C[C@H](COC(=O)[C@@H](N)C(C)C)OC4=O)cc3F)cn2)o1.Cl` [Compound 54, (R)-3-(4-(2-(2-methyl-[1,3,4]oxadiazol-5-yl)pyridin-5-yl)-3-fluorophenyl)-5-(L-valyloxy)methyl oxazolidin-2-one hydrochloride], the results for the MIC50 in data set [1] and in data set [2] were 0.5 µg/mL and 1 µg/mL, respectively. Further, the solubility (in general, the dissolved amount per volume that the medium holds) at 2 min in data set [3] came to 2900 µg/mL.
The like results for `Cc1nnc(-c2ccc(-c3ccc(N4C[C@H](COC(=O)CCN)OC4=O)cc3F)cn2)o1.Cl` [Compound 58, (R)-3-(4-(2-(2-methyl-[1,3,4]oxadiazol-5-yl)pyridin-5-yl)-3-fluorophenyl)-5-(β-alanyloxy)methyl oxazolidin-2-one hydrochloride] were, in that order, 0.5 µg/mL, 1 µg/mL and 5500 µg/mL.
In data set [3], `CC(C)[C@H](N)C(=O)OC[C@H]1CN(c2ccc(-c3ccc(-c4nnnn4C)nc3)c(F)c2)C(=O)O1` [Compound 66, (R)-3-(4-(2-(1-methyltetrazol-5-yl)pyridin-5-yl)-3-fluorophenyl)-5-(L-valyloxy)methyl oxazolidin-2-one trifluoroacetic acid] registered a solubility at 2 min of 4700 µg/mL (≈ 10000 µM).
For `Cc1nnc(-c2ccc(-c3ccc(N4C[C@H](COC(=O)CCN)OC4=O)cc3F)cn2)o1` [Compound 57, (R)-3-(4-(2-(2-methyl-[1,3,4]oxadiazol-5-yl)pyridin-5-yl)-3-fluorophenyl)-5-(β-alanyloxy)methyl oxazolidin-2-one trifluoroacetic acid], the solubility at 2 min in data set [3] is more than 50000 µg/mL.
Take `Cn1nnc(-c2ccc(-c3ccc(N4C[C@H](COC(=O)CCN)OC4=O)cc3F)cn2)n1` [Compound 50, (R)-3-(4-(2-(2-methyltetrazol-5-yl)pyridin-5-yl)-3-fluorophenyl)-5-(β-alanyloxy)methyl oxazolidin-2-one hydrochloride]: the Solubility (usually how much of the substance goes into solution per volume) in data set [3] (hydrochloride) was 20400 µg/mL.
`Cc1nnc(-c2ccc(-c3ccc(N4C[C@H](COC(=O)[C@H](C)N)OC4=O)cc3F)cn2)o1` [Compound 51, (R)-3-(4-(2-(2-methyl-[1,3,4]oxadiazol-5-yl)pyridin-5-yl)-3-fluorophenyl)-5-(L-alanyloxy)methyl oxazolidin-2-one trifluoroacetic acid] gave a solubility at 2 min in data set [3] of more than 50000 µg/mL.
Same read-out and setting: the result for `C[C@H](N)C(=O)OC[C@H]1CN(c2ccc(-c3ccc(-c4nnnn4C)nc3)c(F)c2)C(=O)O1` [Compound 64, (R)-3-(4-(2-(1-methyltetrazol-5-yl)pyridin-5-yl)-3-fluorophenyl)-5-(L-alanyloxy)methyl oxazolidin-2-one trifluoroacetic acid] reads more than 50000 µg/mL; that for `Cn1nnc(-c2ccc(-c3ccc(N4C[C@H](COC(=O)[C@@H]5CCCN5)OC4=O)cc3F)cn2)n1` [Compound 46, (R)-3-(4-(2-(2-methyltetrazol-5-yl)pyridin-5-yl)-3-fluorophenyl)-5-(L-prolinyloxy)methyl oxazolidin-2-one trifluoroacetic acid], less than 1630 µg/mL; that for `Cn1nnnc1-c1ccc(-c2ccc(N3C[C@H](COC(=O)CN)OC3=O)cc2F)cn1` [Compound 62, (R)-3-(4-(2-(1-methyltetrazol-5-yl)pyridin-5-yl)-3-fluorophenyl)-5-glycyloxymethyl oxazolidin-2-one trifluoroacetic acid], 28000 µg/mL (≈ 65500 µM).
`Cc1nnc(-c2ccc(-c3ccc(N4C[C@H](COC(=O)[C@@H](N)C(C)C)OC4=O)cc3F)cn2)o1` [Compound 53, (R)-3-(4-(2-(2-methyl-[1,3,4]oxadiazol-5-yl)pyridin-5-yl)-3-fluorophenyl)-5-(L-valyloxy)methyl oxazolidin-2-one trifluoroacetic acid] gave a solubility at 2 min in data set [3] of 30300 µg/mL (≈ 64500 µM).
The same measure, in the same setting: the result for `Cn1nnnc1-c1ccc(-c2ccc(N3C[C@H](COC(=O)CCN)OC3=O)cc2F)cn1` [Compound 68, (R)-3-(4-(2-(1-methyltetrazol-5-yl)pyridin-5-yl)-3-fluorophenyl)-5-(β-alanyloxy)methyl oxazolidin-2-one trifluoroacetic acid] reads 2600 µg/mL (≈ 5890 µM).
As to `CC(=O)NC[C@H]1CN(c2ccc(-c3ccc(-c4nc(C)c(C)o4)cc3)c(F)c2)C(=O)O1` [Compound 11, (S)-3-(4-(4-(4,5-dimethyloxazol-2-yl)phenyl)-3-fluorophenyl)-2-oxo-5-oxazolidinylmethyl acetamide], the values for the MIC50 in data set [1] and in data set [2] were 0.5 µg/mL (≈ 1.18 µM) and 0.25 µg/mL (≈ 0.59 µM), respectively.
With `Cl.Cn1nnnc1-c1ccc(-c2ccc(N3C[C@H](COC(=O)CN)OC3=O)cc2F)cn1` [Compound 63, (R)-3-(4-(2-(1-methyltetrazol-5-yl)pyridin-5-yl)-3-fluorophenyl)-5-glycyloxymethyl oxazolidin-2-one hydrochloride], the results for the MIC50 in data set [1] and in data set [2] were 0.5 µg/mL and 0.25 µg/mL, respectively.
The like results for `CC(=O)NC[C@H]1CN(c2ccc(-c3ccc(N4CC(COC(=O)CN)CC4=O)nc3)c(F)c2)C(=O)O1` (stereo partly drawn) [Compound 1, (S)-3-(4-(2-(2-oxo-4-glycyloxymethylpylolidin-1-yl)pyridin-5-yl)-3-fluorophenyl)-2-oxo-5-oxazolidinylmethyl acetamide trifluoroacetic acid] were, in that order, 1 µg/mL (≈ 2 µM) and 0.25 µg/mL (≈ 0.501 µM).
For `N#CCc1csc(-c2ccc(-c3ccc(N4C[C@H](COC(=O)CN)OC4=O)cc3F)cc2)n1` [Compound 34, (R)-3-(4-(4-(4-cyanomethylthiazol-2-yl)phenyl)-3-fluorophenyl)-5-glycyloxymethyl oxazolidin-2-one trifluoroacetic acid] the same measures were 1 µg/mL (≈ 2.14 µM) and 1 µg/mL (≈ 2.14 µM).
Regarding `Cc1nnc(-c2ccc(-c3ccc(N4C[C@H](COC(=O)[C@@H]5CCCN5)OC4=O)cc3F)cn2)o1` [Compound 55, (R)-3-(4-(2-(2-methyl-[1,3,4]oxadiazol-5-yl)pyridin-5-yl)-3-fluorophenyl)-5-(L-prolinyloxy)methyl oxazolidin-2-one trifluoroacetic acid], the concentration in solution in data set [3] (solubility at 2 min) came to 7200 µg/mL (≈ 15400 µM).
As for `CC(=O)NC[C@H]1CN(c2ccc(-c3ccc(-n4nccn4)nc3)c(F)c2)C(=O)O1` [Compound 25, (S)-3-(4-(2-([1,2,3]triazol-2-yl)pyridin-5-yl)-3-fluorophenyl)-2-oxo-5-oxazolidinylmethyl acetamide], the MIC50 amounted to 0.25 µg/mL (≈ 0.631 µM) in data set [1] and 0.125 µg/mL (≈ 0.315 µM) in data set [2].
Turning to `Cn1nnc(-c2ccc(-c3ccc(N4C[C@H](COP(=O)(O)O)OC4=O)cc3F)cn2)n1` [Compound 72, mono-[(R)-[3-(4-(2-(2-methyltetrazol-5-yl)pyridin-5-yl)-3-fluorophenyl)-2-oxo-5-oxazolidinyl]methyl]phosphate], the MIC50 in data set [1] and in data set [2] was 32 µg/mL (≈ 71.1 µM) in each case.
`O=C1O[C@@H](Cn2ccnn2)CN1c1ccc(-c2ccc(-c3nc(CO)cs3)cc2)c(F)c1` [Compound 36, (R)-3-(4-(4-(4-hydroxymethylthiazol-2-yl)phenyl)-3-fluorophenyl)-5-([1,2,3]triazol-1-yl)methyl oxazolidin-2-one]: the MIC50 in data set [1] and in data set [2] was 0.5 µg/mL (≈ 1.11 µM) each time.
Take `Cn1nnc(-c2ccc(-c3ccc(N4C[C@H](CF)OC4=O)cc3F)cn2)n1` [Compound 18, (R)-3-(4-(2-(2-methyltetrazol-5-yl)pyridin-5-yl)-3-fluorophenyl)-5-fluoromethyl oxazolidin-2-one]: the MIC50 came to 1 µg/mL (≈ 2.69 µM) in data set [1] and 2 µg/mL (≈ 5.37 µM) in data set [2].
Consider `C[C@H](N)C(=O)OC[C@H]1CN(c2ccc(-c3ccc(-c4nnn(C)n4)nc3)c(F)c2)C(=O)O1` [Compound 42, (R)-3-(4-(2-(2-methyltetrazol-5-yl)pyridin-5-yl)-3-fluorophenyl)-5-(L-alanyloxy)methyl oxazolidin-2-one trifluoroacetic acid], for which the Solubility in data set [3] (listed as compound 42, trifluoroacetic acid) is more than 50000 µg/mL; in data set [3] (trifluoroacetic acid), more than 50000 µg/mL.
As to `COC[C@H]1CN(c2ccc(-c3ccc(-c4nnn(C)n4)nc3)c(F)c2)C(=O)O1` [Compound 33, (R)-3-(4-(2-(2-methyltetrazol-5-yl)pyridin-5-yl)-3-fluorophenyl)-5-methoxymethyl oxazolidin-2-one], the MIC50 in data set [1] and in data set [2] was 2 µg/mL (≈ 5.2 µM) throughout.
As to `NCC(=O)OCc1csc(-c2ccc(-c3ccc(N4C[C@H](Cn5ccnn5)OC4=O)cc3F)cc2)n1` [Compound 37, (R)-3-(4-(4-(4-glycyloxymethylthiazol-2-yl)phenyl)-3-fluorophenyl)-5-([1,2,3]triazol-1-yl)methyl oxazolidin-2-one trifluoroacetic acid], the MIC50 in data set [1] and in data set [2] was 0.5 µg/mL (≈ 0.983 µM) each time.
Turning to `CC(=O)NC[C@H]1CN(c2ccc(-c3ccc(-c4cc(COC(=O)CN)on4)nc3)c(F)c2)C(=O)O1` [Compound 3, (S)-3-(4-(2-(5-glycyloxymethylisoxazol-3-yl)pyridin-5-yl)-3-fluorophenyl)-2-oxo-5-oxazolidinylmethyl acetamide trifluoroacetic acid], the MIC50 in data set [1] and in data set [2] was 0.25 µg/mL (≈ 0.517 µM) each time.
For the compound `CC(=O)NC[C@H]1CN(c2ccc(-c3ccc(-c4nc(CO)cs4)cc3)c(F)c2)C(=O)O1` [Compound 28, (S)-3-(4-(4-(4-hydroxymethylthiazol-2-yl)phenyl)-3-fluorophenyl)-2-oxo-5-oxazolidinylmethyl acetamide], the MIC50 in data set [1] and in data set [2] was 0.5 µg/mL (≈ 1.13 µM) throughout.
